# Test results: publication PMC3685178 (Chemical communications (Cambridge, England), 2013)
# Tested on: MCF-7 tumour cells
# Assay type: cell-based, human
# Conditions: MCF-7, 50 nM, 48 h exposure; cells larger in size, characteristic of G2-M arrest
smiles,measurement,value
"CC(=O)O[C@H]1C(=O)[C@@]2(C)[C@H]([C@H](OC(=O)c3ccccc3)[C@]3(O)C[C@H](OC(=O)[C@H](O)[C@@H](NC(=O)c4ccccc4)c4ccccc4)C(C)=C1C3(C)C)[C@]1(OC(C)=O)CO[C@@H]1C[C@@H]2O [PTX, paclitaxel]",cell populations in live/dead assay,significantly reduced
